Assay results reported in US7960483B2, “Adamantane derivative, composition comprising the derivative, and optical and electronic member using the composition” (Idemitsu Kosan Co., Ltd., priority 2006, dated 2011).

Tests used:
[1] = Compatibility test with bisphenol A (BPA) epoxy resin; type: physicochemical; details: 2.1 g sample + 0.9 g Epikote 828, mixed at 100-130° C., stood at room temperature; time until crystals begin precipitating
Procedure: A sample (2.1 g) and 0.9 g of a BPA epoxy resin (Epikote 828 manufactured by Japan Epoxy Resin Co., Ltd.) were heated to 100° C. to 130° C. and mixed. When a uniform mixture was confirmed to be obtained, the mixture was cooled to room temperature and allowed to quiescently stand to observe the precipitation of crystals with naked eyes and to determine the time period required for the crystals to begin precipitating. When the crystals began precipitating within 0 to 2 days, the evaluation was rated “C”. When 3 to 6 days were required, the evaluation was rated “B”. When no crystals were precipitated even when 7 days had passed, the evaluation was rated “A”.

[2] = Solubility test in cyclohexanone; details: saturation solubility at room temperature, liquid chromatography, about 3 days
Procedure: To 2 g of a sample 1 g of cyclohexanone was added. The mixture was heated to 80° C. to dissolve the sample and cooled to room temperature. Then seed crystals were added thereto and stirred. The solubility (unit: % by mass) of the sample in the solution was measured by liquid chromatography. Such stirring and measurement by liquid chromatography procedures were repeated for about 3 days. The saturation solubility represents the solubility value at which the measured solubility no longer changed.

Row | Solubility in cyclohexanone [2] [% by mass] | Compound | Compatibility with BPA type epoxy resin [1]
1 | 35 | Cc1cc(C23CC4CC(C2)CC(c2cc(C)c(OCC5CO5)c(C)c2)(C4)C3)cc(C)c1OCC1CO1 (stereo not drawn) [BDMP13-EPO, 1,3-bis(4-glycidyloxy-3,5-dimethylphenyl)adamantane] | A (When no crystals were precipitated even when 7 days had passed, the evaluation was rated “A”)
2 | – | 1,3-bis(glycidyloxyphenyl)adamantane [BP13-EPO, reference compound] | C (When the crystals began precipitating within 0 to 2 days, the evaluation was rated “C”)
3 | 46 | c1cc(OCC2CO2)c(C2CCCCC2)cc1C12CC3CC(C1)CC(c1ccc(OCC4CO4)c(C4CCCCC4)c1)(C3)C2 (stereo not drawn) [BCHP13-EPO, 1,3-bis(4-glycidyloxy-3-cyclohexylphenyl)adamantane] | A (When no crystals were precipitated even when 7 days had passed, the evaluation was rated “A”)
4 | 32 | Cc1cc(C2(c3cc(C)c(OCC4CO4)c(C)c3)C3CC4CC(C3)CC2C4)cc(C)c1OCC1CO1 (stereo not drawn) [BDMP22-EPO, 2,2-bis(4-glycidyloxy-3,5-dimethylphenyl)adamantane] | B (When 3 to 6 days were required, the evaluation was rated “B”)
5 | 33 | Cc1cc(C23CC4CC(C2)CC(c2ccc(OCC5CO5)c(C)c2)(C4)C3)ccc1OCC1CO1 (stereo not drawn) [BMP13-EPO, 1,3-bis(4-glycidyloxy-3-methylphenyl)adamantane] | B (When 3 to 6 days were required, the evaluation was rated “B”)
